How the values were obtained:
Assay type in all cases: in vitro ADME
CYP3A4 [1] = molecular target: T1, CYP3A4 (Homo sapiens, UniProt P08684); test: CYP3A4 inhibition in pooled human liver microsomes (testosterone 6β-hydroxylation)
T1 construct: The pooled human liver microsomes (HLMs) were obtained from BD Biosciences Discovery Labware; tissue BD Biosciences Discovery Labware; host or cells: pooled human liver microsomes
Method: (§1) The pooled human liver microsomes (HLMs) were obtained from BD Biosciences Discovery Labware. The HLMs were incubated with specific substrates of corresponding CYP450 isoenzymes under the reaction conditions in Table 1 according to previous reports (Dong et al. [2018]; Zhang et al. [2019]; Zhang, Feng, et al. [2020]). The incubation system also included alpinetin (Figure 1, 99%, Chengdu Munster Biothechnology Co, China, or specific inhibitors) and an β-NADPH generating system as previously reported in the potassium phosphate buffer with a final volume of 200 μL. The β-NADPH generating system contained NADP^+, glucose-6-phosphate, glucose-6-phosphate dehydrogenase, and MgCl2, which was used to initiate the reaction after a pre-incubation of 3 min. At the end of the reactions, the acetonitrile or trichloroacetic acid (for the evaluation of CYP2A6) was added for the termination of the reactions. All reagents were of at least analytical reagent grade obtained from Sigma Aldrich (USA). All incubations were performed in triplicate and the concentrations of metabolites were analysed with HPLC.
(§2) The effect of alpinetin on the activity of CYP1A2, 2A6, 3A4, 2C8, 2C9, 2C19, 2D6, and 2E1 was first evaluated with a concentration of 100 μM. The isoenzymes that were inhibited by alpinetin were further incubated with 0, 2.5, 5, 10, 25, 50, and 100 μM alpinetin to obtain the values of IC50.
(§3) Meanwhile, the kinetic studies were conducted in the presence of various substrate concentrations to obtain the values of Ki. The inhibition model was evaluated according to the following equations: v = (VmaxS)/[Km(1 + I/Ki) + S] for the competitive inhibition and v = (VmaxS)/[(Km + S(1 + I/KiKI)] for the non-competitive inhibition. The I is the concentration of the compound, Ki is the inhibition constant, S is the concentration of the substrate, and Km is the substrate concentration at half the maximum velocity (Vmax) of the reaction.

CYP2C9 [2] = molecular target: T2, CYP2C9 (Homo sapiens, UniProt P11712); test: Time-dependent inhibition assay of CYP2C9 in human liver microsomes; details: data not shown
T2 construct: The pooled human liver microsomes (HLMs) were obtained from BD Biosciences Discovery Labware; tissue BD Biosciences Discovery Labware; host or cells: pooled human liver microsomes
Method: (§4) The time-dependent inhibition assay was conducted with an incubation time of 0, 5, 10, 15, and 30 min after a 30 min pre-incubation with 1 mg/mL HLMs in the presence of NADPH-generating system at 37 °C.

CYP2E1 [3] = molecular target: T3, CYP2E1 (Homo sapiens, UniProt P05181); test: CYP2E1 inhibition in pooled human liver microsomes (chlorzoxazone 6-hydroxylation)
T3 construct: The pooled human liver microsomes (HLMs) were obtained from BD Biosciences Discovery Labware; tissue BD Biosciences Discovery Labware; host or cells: pooled human liver microsomes
Method: as §1, §2, §3

CYP2E1 [4] = molecular target: T3, CYP2E1; test: Time-dependent inhibition assay of CYP2E1 in human liver microsomes; details: data not shown
Method: as §4

CYP2C9 [5] = molecular target: T2, CYP2C9; test: CYP2C9 inhibition in pooled human liver microsomes (diclofenac 4′-hydroxylation)
Method: as §1, §2, §3

CYP3A4 [6] = molecular target: T1, CYP3A4; test: Time-dependent inhibition assay of CYP3A4 in human liver microsomes
Method: as §4

[7] = 100 μM alpinetin, relative to negative control
[8] = competitive model, various substrate concentrations

T2 sequence (P11712 whole entry): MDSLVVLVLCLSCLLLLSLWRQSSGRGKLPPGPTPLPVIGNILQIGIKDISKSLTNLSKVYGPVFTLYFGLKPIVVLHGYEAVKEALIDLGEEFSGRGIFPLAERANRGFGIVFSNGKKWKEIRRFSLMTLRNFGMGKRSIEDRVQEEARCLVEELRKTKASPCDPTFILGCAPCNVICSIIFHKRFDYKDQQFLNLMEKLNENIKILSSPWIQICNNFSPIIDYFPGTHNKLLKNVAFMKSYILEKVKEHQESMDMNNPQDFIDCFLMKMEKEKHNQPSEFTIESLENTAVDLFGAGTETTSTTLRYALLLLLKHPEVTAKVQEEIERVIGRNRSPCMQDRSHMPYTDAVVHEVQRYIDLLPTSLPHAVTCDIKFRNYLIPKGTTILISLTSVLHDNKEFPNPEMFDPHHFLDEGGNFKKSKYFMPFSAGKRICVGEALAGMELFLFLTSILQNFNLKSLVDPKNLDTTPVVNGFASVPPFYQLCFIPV
T1 sequence (P08684 whole entry): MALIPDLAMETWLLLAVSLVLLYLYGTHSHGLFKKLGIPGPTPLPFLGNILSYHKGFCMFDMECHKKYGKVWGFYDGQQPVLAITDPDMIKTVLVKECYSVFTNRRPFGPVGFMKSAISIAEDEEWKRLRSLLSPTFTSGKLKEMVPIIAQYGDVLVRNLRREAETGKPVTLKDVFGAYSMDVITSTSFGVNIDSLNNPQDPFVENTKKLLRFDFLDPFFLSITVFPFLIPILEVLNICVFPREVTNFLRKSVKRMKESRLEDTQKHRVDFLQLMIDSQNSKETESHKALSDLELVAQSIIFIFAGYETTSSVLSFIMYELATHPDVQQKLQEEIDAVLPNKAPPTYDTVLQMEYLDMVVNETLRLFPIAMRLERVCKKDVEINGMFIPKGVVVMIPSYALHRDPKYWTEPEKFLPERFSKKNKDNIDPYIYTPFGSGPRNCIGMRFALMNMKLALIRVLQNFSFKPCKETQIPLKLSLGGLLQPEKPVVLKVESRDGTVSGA
T3 sequence (P05181 whole entry): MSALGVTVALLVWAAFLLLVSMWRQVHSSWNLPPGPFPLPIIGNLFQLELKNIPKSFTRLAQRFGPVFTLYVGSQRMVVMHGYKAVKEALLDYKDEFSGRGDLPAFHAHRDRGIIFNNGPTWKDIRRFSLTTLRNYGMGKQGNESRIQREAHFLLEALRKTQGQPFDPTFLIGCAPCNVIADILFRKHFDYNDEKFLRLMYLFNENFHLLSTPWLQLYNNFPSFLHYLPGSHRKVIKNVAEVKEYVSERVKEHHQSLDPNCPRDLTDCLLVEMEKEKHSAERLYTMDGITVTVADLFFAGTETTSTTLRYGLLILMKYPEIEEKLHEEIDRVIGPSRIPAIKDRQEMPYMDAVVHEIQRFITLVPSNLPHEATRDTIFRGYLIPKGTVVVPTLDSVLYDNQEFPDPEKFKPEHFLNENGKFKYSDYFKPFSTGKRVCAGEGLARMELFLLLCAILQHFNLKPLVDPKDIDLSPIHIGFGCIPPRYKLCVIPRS

Effect on CYP3A4 activity (CYP3A4 [1]; [7]): dramatically inhibitory effect
Inhibition model of CYP3A4 (CYP3A4 [1]; best-fitted model, stable Km): non-competitive
Ki (CYP3A4 [1]; non-competitive model, 0, 2, 5, 10, and 20 μM alpinetin, various concentrations of testosterone): 4.09 µM
IC50 (CYP3A4 [1]; pooled HLMs, 0-100 μM alpinetin, testosterone 50 μM): 8.23 µM
Time dependence of CYP2C9 inhibition (CYP2C9 [2]): no time-dependent characteristics
Effect on CYP2E1 activity (CYP2E1 [3]; [7]): dramatically inhibitory effect
Ki (CYP2E1 [3]; [8]): 5.4 µM
IC50 (CYP2E1 [3]; pooled HLMs, 0-100 μM alpinetin, chlorzoxazone 120 μM): 11 µM
Inhibition model of CYP2E1 (CYP2E1 [3]; stable Vmax): competitively
Time dependence of CYP2E1 inhibition (CYP2E1 [4]): no time-dependent characteristics
Effect on CYP2C9 activity (CYP2C9 [5]; [7]): dramatically inhibitory effect
Ki (CYP2C9 [5]; [8]): 6.42 µM
IC50 (CYP2C9 [5]; pooled HLMs, 0-100 μM alpinetin, diclofenac 10 μM): 12.6 µM
Inhibition model of CYP2C9 (CYP2C9 [5]; stable Vmax): competitively
Kinact of time-dependent CYP3A4 inhibition (CYP3A4 [6]; 30 min pre-incubation, 1 mg/mL HLMs, substrate approx. 4-fold Km): 0.041 min⁻¹
Time dependence of CYP3A4 inhibition (CYP3A4 [6]; incubation 0, 5, 10, 15, and 30 min): time-dependent
SMILES: COc1cc(O)cc2c1C(=O)C[C@@H](c1ccccc1)O2 [alpinetin]
